Data from patent US20180235870A1, “TRANSDERMAL FORMULATIONS FOR DELIVERY OF BERBERINE COMPOUNDS, AND THEIR USE IN THE TREATMENT OF BERBERINE-RESPONSIVE DISEASES AND CONDITIONS” (DELIVRA INC., priority 2015, published 2018).

Key:
[1] = humans; cited from earlier work
[2] = Solubility testing of berberine and dihydroberberine using various solvents; format: physicochemical
Description: Solubility was determined in a step-wise procedure that involved attempting to dissolve the berberine/DHB in the solvents at relatively high concentrations. […] Then the expected solvent was added to the berberine/DHB. The container was sonicated at RT or at 40C for 30 minutes. The following solvents were tested to dissolve the DHB. Dimethyl sulfoxide (Reagent Grade; […] Lot #STB[…]), and Glycerol tributyrate (Sigma T8626; Lot #BCBQ […]). […] The solubility was visually checked and state of solubility was recorded.

[3] = Circulating berberine after chronic administration by various routes (Example 23); format: in vivo; conditions: male, rat, plasma, oral, 180 mg/kg/dose; 15 days administration BID, Zucker fa/fa rats
[4] = rats; cited from earlier work
[5] = test system: male Zucker rat, a model of type-2 diabetes and metabolic disorder; test: Effect of berberine, metformin and simvastatin on body mass, lipid biomarkers, food and water intake, clinical chemistry (Example 18); format: in vivo, obese male Zucker fa/fa rats; conditions: Zucker rats, Days 0 to 28
Description: All in vivo animal husbandry, treatment regiments, and sample collections were completed by InterVivo. The study was completed using obese male Zucker fa/fa rats (Charles River) at 10 weeks of age. […] Shaving was performed under anaesthesia one day prior to initiation of test article administration. The area was further shaven, as needed, over the course of the dosing period to ensure accurate drug application and absorption. For dosing procedures, animals were restrained and the transdermal test articles applied in a uniform layer over the entire shaved area. The shaved administration area was cleaned daily with paper towel before the subsequent transdermal dose was administered. Animals receiving test articles via oral gavage were restrained, and a ball-tipped gavage needle (18G) attached to a syringe containing the dosing solution was first inserted into the mouth, and then into the stomach. To determine the appropriate depth of insertion of the needle, the position corresponding to the last rib was measured prior to insertion. […] Group A), oral administration of berberine (180 mg/kg/dose; […] Group C), and oral administration of the vehicle (Group D) (Table 19). […] Group F), or with orally-administered metformin (200 mg/kg/dose; Group G). […] On Day 28, the animals were dosed in the morning only, prior to euthanasia and tissue collection. Animal body weights were performed once weekly from Day −34 to −2 and daily from Day −1 to 28. Rats were weighed, and the scales were operated and maintained, according to standard operating procedures. Food and water consumption measurements were taken over a 24 hour period, once weekly, from Days 0 to 28. Blood was collected via tail nick on Day-1 to determine unfasted blood glucose level for group allocation. Whole blood was collected via the saphenous vein or other appropriate route on Days 0, 7, 14, 21 and 28 immediately prior to test article administration. […] On Day 28, subjects were anaesthetized with isoflurane, and whole blood was collected via cardiac puncture 2.5 hours (+/−5 minutes) following treatment administration on this day. […]

[6] = Plasma concentrations of berberine, berberine glucuronide, simvastatin and simvastatin hydroxy acid in rats (Example 20); format: in vivo; conditions: rats (n=2); oral 180 mg/kg/dose or transdermal 3.6 g/kg/dose
[7] = physchem; format: physicochemical
Description: The berberine partition coefficient procedure was used to assess the properties of berberine, which was determined to be an overall hydrophilic molecule. […] The solution was shaken by hand for 30 seconds and allowed to stand for 5 minutes. […] The solution was mixed for one hour using a rotating tube inverter (VWR, 13916-822). A blank sample containing water and octanol (0.7 mL of each) was prepared. […] The sample was monitored using UV/V is at wavelengths 230/600 nm and 280/600 nm. Autosampler temperature was maintained at 24° C. and column was at 30° C. The two layers of the sample were injected by adjusting the injection needle height. 0 mm was used for the water layer and +11 mm was used for the octanol layer. The retention time for berberine elution is 1.4 minutes and peak areas were assigned using the onboard Agilent software based upon absorbance at 230 nm. A HPLC-UV chromatogram was recorded for each layer of the partition according the procedure described above. The area under the peak between 1.2-2.2 minutes in the chromatogram was used as a measure of concentration of berberine. A linear relationship was assumed to exist between absorbance and concentration of berberine at the concentrations evaluated. […] The area-blank (cps) was used directly in the equation below.

[8] = Glycerol tributyrate, sonication 40 C.
[9] = Glycerol tributyrate, sonication RT
[10] = Isopropyl myristate, sonication 40 C.
[11] = Isopropyl myristate, sonication RT
[12] = Isosorbid-dimethyl ether 98%, sonication RT
[13] = Oleyl alcohol, sonication 40 C.

COc1ccc2cc3[n+](cc2c1OC)CCc1cc2c(cc1-3)OCO2 [berberine, Berberine]
bioavailability [1]: below 1% | Dissolving Capability ([2]; Ethanol, sonication 40 C.): 40 mg/mL | State of Solubility ([2]; Ethanol, sonication 40 C.): Suspension | Dissolving Capability ([2]; Ethanol, sonication RT): 25 mg/mL | State of Solubility ([2]; Ethanol, sonication RT): Suspension | Dissolving Capability [2, 8]: 250 mg/mL | State of Solubility [2, 8]: Suspension | Dissolving Capability [2, 9]: 50 mg/mL | State of Solubility [2, 9]: Suspension | Dissolving Capability [2, 10]: 250 mg/mL | State of Solubility [2, 10]: Suspension | Dissolving Capability [2, 11]: 50 mg/mL | State of Solubility [2, 11]: Suspension | Dissolving Capability ([2]; Isosorbid-dimethyl ether 98%, sonication 40 C.): 250 mg/mL | State of Solubility ([2]; Isosorbid-dimethyl ether 98%, sonication 40 C., at the concentration of the same line): Suspension | Dissolving Capability [2, 12]: 50 mg/mL | State of Solubility [2, 12]: Suspension | Dissolving Capability [2, 13]: 250 mg/mL | State of Solubility [2, 13]: Suspension | Dissolving Capability ([2]; Oleyl alcohol, sonication RT): 50 mg/mL | State of Solubility ([2]; Oleyl alcohol, sonication RT): Suspension | Dissolving Capability ([2]; Water, sonication 40 C.): 50 mg/mL | State of Solubility ([2]; Water, sonication 40 C.): Suspension | Dissolving Capability ([2]; Water, sonication RT): 25 mg/mL | State of Solubility ([2]; Water, sonication RT): Suspension | concentration at 15 days [3]: 101 ng/mL | bioavailability of orally administered berberine [4]: approximately 0.7% | cholesterol and triglyceride blood counts (in words) [5]: reduced cholesterol and triglyceride blood counts | glucose levels (in words) ([5]; non-fasting): largest reduction in glucose levels | berberine plasma concentration [6]: 0.44 ng/mL | berberine in the lipophilic octanol solvent [7]: ~3% | logD [7]: -0.63 | Octanol area (cps) 230 nm ([7]; Partition): 1763 cps | Water area (cps) 230 nm ([7]; Partition): 34696 cps | Octanol area (cps) 230 nm ([7]; Partition minus blank): 807 cps | Water area (cps) 230 nm ([7]; Partition minus blank): 34342 cps | berberine remaining within the water layer ([7]; octanol/water): 97%
